Target: Tyrosine-protein kinase BTK (Homo sapiens, UniProt Q06187)
Experiment: Biochemical Assay: A generalized procedure for a standard biochemical Btk Kinase Assay that can be used to test Formula I compounds. Alternatively, the Lanthascreen assay can be used to evaluate Btk activity through quantification of its phosphorylated peptide product. The FRET (Fluorescence Resonance Energy Transfer) that occurs between the fluorescein on the peptide product and the terbium on …

Tyrosine-protein kinase BTK, sequence (Q06187 whole entry): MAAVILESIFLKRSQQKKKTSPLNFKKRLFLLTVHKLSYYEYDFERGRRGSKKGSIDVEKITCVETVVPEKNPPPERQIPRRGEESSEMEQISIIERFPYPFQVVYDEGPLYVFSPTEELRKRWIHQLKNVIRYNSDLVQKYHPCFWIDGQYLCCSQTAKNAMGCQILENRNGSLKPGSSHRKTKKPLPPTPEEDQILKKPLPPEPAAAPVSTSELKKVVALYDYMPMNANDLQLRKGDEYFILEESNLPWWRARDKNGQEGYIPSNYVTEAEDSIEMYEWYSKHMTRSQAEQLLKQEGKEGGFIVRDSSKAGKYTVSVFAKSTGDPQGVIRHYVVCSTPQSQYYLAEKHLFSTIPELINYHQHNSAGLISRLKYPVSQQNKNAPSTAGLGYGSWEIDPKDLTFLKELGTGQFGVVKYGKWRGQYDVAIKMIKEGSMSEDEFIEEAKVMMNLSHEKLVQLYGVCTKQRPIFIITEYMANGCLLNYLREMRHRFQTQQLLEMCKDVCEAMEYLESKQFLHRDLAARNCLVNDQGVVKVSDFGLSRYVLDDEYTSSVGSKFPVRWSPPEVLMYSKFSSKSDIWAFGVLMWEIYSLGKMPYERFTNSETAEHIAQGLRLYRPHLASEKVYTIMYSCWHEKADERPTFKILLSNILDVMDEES

IC50: 5.2 nM
Compound: Cn1cc(-c2cccc(N3CCn4c(cc5c4CC(C)(C)C5)C3=O)c2CO)cc(Nc2ccc(N3CCN(C4COC4)CC3)cn2)c1=O

Source: ChEMBL document CHEMBL3639120, “Pyridone and aza-pyridone compounds and methods of use” (2013)
